Test results: PubChem BioAssay AID2060619 (Molecular Pharmacology Branch, DTP, NCI, 2025)
pIC50: −log10 of the molar value. One block for each compound: values may come before it.

System: 323965-272-R-J2-PDC complex spheroid viability
Experiment: Anticancer human tumor 323965-272-R-J2-PDC patient-derived pancreatic carcinoma cell line growth inhibition [CLK]
Details: for pIC50: curve of first compound; for viability, T/C: stronger effect = lower value
Procedure, shortened: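 Multi-cell-type spheroids combined patient-derived tumor cells with HUVEC endothelial cells and human mesenchymal stem cells. Paired agents were dosed in half-log steps down from about clinical Cmax, or from 10 microM where Cmax was unknown.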

[1] = second compound 0.0316 µM, first compound 0.00949 µM
[2] = second compound 0.0316 µM, first compound 0.03 µM
[3] = second compound 0.0316 µM, first compound 0.0949 µM
[4] = second compound 0.0316 µM, first compound 0.3 µM
[5] = second compound 0.1 µM, first compound 0.00949 µM
[6] = second compound 0.1 µM, first compound 0.03 µM
[7] = second compound 0.1 µM, first compound 0.0949 µM
[8] = second compound 0.1 µM, first compound 0.3 µM
[9] = second compound 0.316 µM, first compound 0.00949 µM
[10] = second compound 0.316 µM, first compound 0.03 µM
[11] = second compound 0.316 µM, first compound 0.0949 µM
[12] = second compound 0.316 µM, first compound 0.3 µM
[13] = second compound 1 µM, first compound 0.00949 µM
[14] = second compound 1 µM, first compound 0.03 µM
[15] = second compound 1 µM, first compound 0.0949 µM
[16] = second compound 1 µM, first compound 0.3 µM
[17] = second compound 3.16 µM, first compound 0.00949 µM
[18] = second compound 3.16 µM, first compound 0.03 µM
[19] = second compound 3.16 µM, first compound 0.0949 µM
[20] = second compound 3.16 µM, first compound 0.3 µM
[21] = second compound 10 µM, first compound 0.00949 µM
[22] = second compound 10 µM, first compound 0.03 µM
[23] = second compound 10 µM, first compound 0.0949 µM
[24] = second compound 10 µM, first compound 0.3 µM
[25] = second compound 0.0316 µM, first compound 0.0316 µM
[26] = second compound 0.0316 µM, first compound 0.1 µM
[27] = second compound 0.0316 µM, first compound 0.316 µM
[28] = second compound 0.0316 µM, first compound 1 µM
[29] = second compound 0.0316 µM, first compound 3.16 µM
[30] = second compound 0.0316 µM, first compound 10 µM
[31] = second compound 0.1 µM, first compound 0.0316 µM
[32] = second compound 0.1 µM, first compound 0.1 µM
[33] = second compound 0.1 µM, first compound 0.316 µM
[34] = second compound 0.1 µM, first compound 1 µM
[35] = second compound 0.1 µM, first compound 3.16 µM
[36] = second compound 0.1 µM, first compound 10 µM
[37] = second compound 0.316 µM, first compound 0.0316 µM
[38] = second compound 0.316 µM, first compound 0.1 µM
[39] = second compound 0.316 µM, first compound 0.316 µM
[40] = second compound 0.316 µM, first compound 1 µM
[41] = second compound 0.316 µM, first compound 3.16 µM
[42] = second compound 0.316 µM, first compound 10 µM
[43] = second compound 1 µM, first compound 0.0316 µM
[44] = second compound 1 µM, first compound 0.1 µM
[45] = second compound 1 µM, first compound 0.316 µM
[46] = second compound 1 µM, first compound 1 µM
[47] = second compound 1 µM, first compound 3.16 µM
[48] = second compound 1 µM, first compound 10 µM
[49] = second compound 3.16 µM, first compound 0.0316 µM
[50] = second compound 3.16 µM, first compound 0.1 µM
[51] = second compound 3.16 µM, first compound 0.316 µM
[52] = second compound 3.16 µM, first compound 1 µM
[53] = second compound 3.16 µM, first compound 3.16 µM
[54] = second compound 3.16 µM, first compound 10 µM
[55] = second compound 10 µM, first compound 0.0316 µM
[56] = second compound 10 µM, first compound 0.1 µM
[57] = second compound 10 µM, first compound 0.316 µM
[58] = second compound 10 µM, first compound 1 µM
[59] = second compound 10 µM, first compound 3.16 µM
[60] = second compound 10 µM, first compound 10 µM
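Note: spheroids exposed to agents for seven days before readout.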
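Throughout, for viability, T/C: percent of DMSO vehicle control wells so 100% = untreated growth.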

pIC50 (second compound 0.0316 µM): 8.46
pIC50 (second compound 0.1 µM): 8.42
pIC50 (second compound 0.316 µM): 8.51
pIC50 (second compound 1 µM): 8.76
pIC50 (second compound 3.16 µM): > 9.02
pIC50 (second compound 10 µM): 8.99
SMILES: CC(C)CC(NC(=O)C(Cc1ccccc1)NC(=O)c1cnccn1)B(O)O (stereo not drawn) + CNC(=O)c1ccc(Nc2nc(OC3CCCC3)c3c(-c4ccc5nc(C)oc5c4)c[nH]c3n2)c(OC)c1
viability, T/C (second compound 0.0316 µM, first compound 0.000949 µM): 144%
viability, T/C (second compound 0.0316 µM, first compound 0.003 µM): 57.1%
viability, T/C [1]: 3.74%
viability, T/C [2]: 0.63%
viability, T/C [3]: 0.4%
viability, T/C [4]: 1.5%
viability, T/C (second compound 0.1 µM, first compound 0.000949 µM): 97.1%
viability, T/C (second compound 0.1 µM, first compound 0.003 µM): 62.7%
viability, T/C [5]: 3.57%
viability, T/C [6]: 0.66%
viability, T/C [7]: 0.72%
viability, T/C [8]: 3.02%
viability, T/C (second compound 0.316 µM, first compound 0.000949 µM): 77.6%
viability, T/C (second compound 0.316 µM, first compound 0.003 µM): 51.5%
viability, T/C [9]: 3.56%
viability, T/C [10]: 0.65%
viability, T/C [11]: 0.61%
viability, T/C [12]: 0.43%
viability, T/C (second compound 1 µM, first compound 0.000949 µM): 62.9%
viability, T/C (second compound 1 µM, first compound 0.003 µM): 38%
viability, T/C [13]: 3.86%
viability, T/C [14]: 0.86%
viability, T/C [15]: 1.19%
viability, T/C [16]: 1.58%
viability, T/C (second compound 3.16 µM, first compound 0.000949 µM): 48.7%
viability, T/C (second compound 3.16 µM, first compound 0.003 µM): 28.7%
viability, T/C [17]: 1.87%
viability, T/C [18]: 0.28%
viability, T/C [19]: 0.73%
viability, T/C [20]: 1.18%
viability, T/C (second compound 10 µM, first compound 0.000949 µM): 51.6%
viability, T/C (second compound 10 µM, first compound 0.003 µM): 24.5%
viability, T/C [21]: 1.13%
viability, T/C [22]: 0.33%
viability, T/C [23]: 0.86%
viability, T/C [24]: 2.07%

pIC50 (second compound 0.0316 µM): 5.26
pIC50 (second compound 0.1 µM): 5.38
pIC50 (second compound 0.316 µM): 5.64
pIC50 (second compound 1 µM): > 7.50
pIC50 (second compound 3.16 µM): > 7.50
pIC50 (second compound 10 µM): > 7.50
SMILES: CC1(C)CCC(CN2CCN(c3ccc(C(=O)NS(=O)(=O)c4ccc(NCC5CCOCC5)c([N+](=O)[O-])c4)c(Oc4cnc5[nH]ccc5c4)c3)CC2)=C(c2ccc(Cl)cc2)C1 + CNC(=O)c1ccc(Nc2nc(OC3CCCC3)c3c(-c4ccc5nc(C)oc5c4)c[nH]c3n2)c(OC)c1
viability, T/C [25]: 102%
viability, T/C [26]: 93.4%
viability, T/C [27]: 98.7%
viability, T/C [28]: 93%
viability, T/C [29]: 89.9%
viability, T/C [30]: 8.02%
viability, T/C [31]: 87.4%
viability, T/C [32]: 94.4%
viability, T/C [33]: 78.8%
viability, T/C [34]: 80.2%
viability, T/C [35]: 65.6%
viability, T/C [36]: 7.13%
viability, T/C [37]: 67.7%
viability, T/C [38]: 69%
viability, T/C [39]: 64.7%
viability, T/C [40]: 58.7%
viability, T/C [41]: 47.3%
viability, T/C [42]: 7.29%
viability, T/C [43]: 44.1%
viability, T/C [44]: 45.9%
viability, T/C [45]: 45.2%
viability, T/C [46]: 42%
viability, T/C [47]: 36.1%
viability, T/C [48]: 7.06%
viability, T/C [49]: 39.5%
viability, T/C [50]: 41.8%
viability, T/C [51]: 43.5%
viability, T/C [52]: 36.1%
viability, T/C [53]: 37%
viability, T/C [54]: 7.39%
viability, T/C [55]: 36.7%
viability, T/C [56]: 36.2%
viability, T/C [57]: 41.5%
viability, T/C [58]: 33.7%
viability, T/C [59]: 32.6%
viability, T/C [60]: 8.69%

pIC50 (second compound 0.0316 µM): 5.68
pIC50 (second compound 0.1 µM): 5.77
pIC50 (second compound 0.316 µM): 5.93
pIC50 (second compound 1 µM): > 7.50
pIC50 (second compound 3.16 µM): > 7.50
pIC50 (second compound 10 µM): > 7.50
SMILES: CC1COCCN1c1cc(C2(S(C)(=N)=O)CC2)nc(-c2ccnc3[nH]ccc23)n1 (stereo not drawn) + CNC(=O)c1ccc(Nc2nc(OC3CCCC3)c3c(-c4ccc5nc(C)oc5c4)c[nH]c3n2)c(OC)c1
viability, T/C [25]: 109%
viability, T/C [26]: 106%
viability, T/C [27]: 90.7%
viability, T/C [28]: 70.1%
viability, T/C [29]: 38.2%
viability, T/C [30]: 25.6%
viability, T/C [31]: 94%
viability, T/C [32]: 93.8%
viability, T/C [33]: 64.2%
viability, T/C [34]: 64.2%
viability, T/C [35]: 37.8%
viability, T/C [36]: 33.9%
viability, T/C [37]: 58.5%
viability, T/C [38]: 61.5%
viability, T/C [39]: 61.2%
viability, T/C [40]: 51.1%
viability, T/C [41]: 37.4%
viability, T/C [42]: 27.7%
viability, T/C [43]: 43.4%
viability, T/C [44]: 48.9%
viability, T/C [45]: 40.7%
viability, T/C [46]: 33.8%
viability, T/C [47]: 24%
viability, T/C [48]: 18.7%
viability, T/C [49]: 41.7%
viability, T/C [50]: 36.9%
viability, T/C [51]: 39.2%
viability, T/C [52]: 31.5%
viability, T/C [53]: 24.1%
viability, T/C [54]: 18.7%
viability, T/C [55]: 46.8%
viability, T/C [56]: 42.6%
viability, T/C [57]: 38.5%
viability, T/C [58]: 28.5%
viability, T/C [59]: 22%
viability, T/C [60]: 16.8%

pIC50 (second compound 0.0316 µM): 5.97
pIC50 (second compound 0.1 µM): 5.90
pIC50 (second compound 0.316 µM): 6.18
pIC50 (second compound 1 µM): 7.27
pIC50 (second compound 3.16 µM): > 8.02
pIC50 (second compound 10 µM): > 8.02
SMILES: NC(=O)C(=Cn1cnc(-c2cc(C(F)(F)F)cc(C(F)(F)F)c2)n1)c1cncnc1 + CNC(=O)c1ccc(Nc2nc(OC3CCCC3)c3c(-c4ccc5nc(C)oc5c4)c[nH]c3n2)c(OC)c1
viability, T/C [1]: 112%
viability, T/C [2]: 88.8%
viability, T/C [3]: 75.1%
viability, T/C [4]: 66.7%
viability, T/C (second compound 0.0316 µM, first compound 0.949 µM): 62.1%
viability, T/C (second compound 0.0316 µM, first compound 3 µM): 30.9%
viability, T/C [5]: 86.6%
viability, T/C [6]: 89%
viability, T/C [7]: 70.9%
viability, T/C [8]: 68.6%
viability, T/C (second compound 0.1 µM, first compound 0.949 µM): 59.6%
viability, T/C (second compound 0.1 µM, first compound 3 µM): 32.5%
viability, T/C [9]: 65.8%
viability, T/C [10]: 67.9%
viability, T/C [11]: 64.7%
viability, T/C [12]: 59.9%
viability, T/C (second compound 0.316 µM, first compound 0.949 µM): 45.3%
viability, T/C (second compound 0.316 µM, first compound 3 µM): 25.5%
viability, T/C [13]: 50.9%
viability, T/C [14]: 56.4%
viability, T/C [15]: 45.1%
viability, T/C [16]: 42.8%
viability, T/C (second compound 1 µM, first compound 0.949 µM): 30.6%
viability, T/C (second compound 1 µM, first compound 3 µM): 13.1%
viability, T/C [17]: 46%
viability, T/C [18]: 51.4%
viability, T/C [19]: 37.1%
viability, T/C [20]: 38.9%
viability, T/C (second compound 3.16 µM, first compound 0.949 µM): 33%
viability, T/C (second compound 3.16 µM, first compound 3 µM): 16.6%
viability, T/C [21]: 45.1%
viability, T/C [22]: 48.4%
viability, T/C [23]: 47.2%
viability, T/C [24]: 39.8%
viability, T/C (second compound 10 µM, first compound 0.949 µM): 24.1%
viability, T/C (second compound 10 µM, first compound 3 µM): 9.32%
